Measured values taken from paper PMC3389199 (Bioorganic & medicinal chemistry letters, 2012).
Marks after values point to notes of the source that are not given here.

What was measured:
hDAGLα [1] = target: T1, hDAGLα (Homo sapiens, UniProt Q9Y4D2); assay: Radio-TLC assay of hDAGLα inhibition with [14C]SAG substrate; type: biochemical; conditions: for inhibition of hDAGLα activity at 10 μM (in words): radiolabeled substrate [14C]SAG
T1 sequence (Q9Y4D2 1-1042): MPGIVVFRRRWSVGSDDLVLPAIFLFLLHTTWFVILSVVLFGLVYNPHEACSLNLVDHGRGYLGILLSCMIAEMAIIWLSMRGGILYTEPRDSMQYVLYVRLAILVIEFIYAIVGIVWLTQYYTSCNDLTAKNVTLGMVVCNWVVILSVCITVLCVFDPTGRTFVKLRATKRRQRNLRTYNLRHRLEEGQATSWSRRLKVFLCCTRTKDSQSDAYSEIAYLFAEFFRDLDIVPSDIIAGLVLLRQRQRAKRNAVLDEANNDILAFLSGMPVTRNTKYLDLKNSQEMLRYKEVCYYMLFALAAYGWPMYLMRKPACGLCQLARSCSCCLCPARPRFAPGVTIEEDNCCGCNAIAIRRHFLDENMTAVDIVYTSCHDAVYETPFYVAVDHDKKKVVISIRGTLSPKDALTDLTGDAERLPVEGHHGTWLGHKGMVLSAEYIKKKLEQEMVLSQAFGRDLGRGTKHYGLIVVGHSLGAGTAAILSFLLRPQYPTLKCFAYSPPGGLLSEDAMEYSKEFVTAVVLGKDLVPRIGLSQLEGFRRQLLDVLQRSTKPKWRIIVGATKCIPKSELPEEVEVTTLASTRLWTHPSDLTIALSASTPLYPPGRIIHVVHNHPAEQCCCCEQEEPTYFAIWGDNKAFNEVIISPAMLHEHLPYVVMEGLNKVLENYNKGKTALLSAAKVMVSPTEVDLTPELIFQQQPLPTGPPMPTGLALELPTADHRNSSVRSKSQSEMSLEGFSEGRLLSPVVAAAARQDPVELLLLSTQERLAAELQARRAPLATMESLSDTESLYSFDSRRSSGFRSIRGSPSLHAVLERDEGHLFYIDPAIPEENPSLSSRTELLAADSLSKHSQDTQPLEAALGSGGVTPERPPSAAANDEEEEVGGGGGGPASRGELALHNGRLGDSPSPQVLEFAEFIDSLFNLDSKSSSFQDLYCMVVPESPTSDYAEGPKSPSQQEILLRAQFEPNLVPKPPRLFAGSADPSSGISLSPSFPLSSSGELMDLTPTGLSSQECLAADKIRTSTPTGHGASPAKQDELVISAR

[2] = tested on: Lipoprotein Lipase (Bacterial); assay: In vitro FRET-based lipoprotein lipase assay with reporter compound 17; type: biochemical, Pseudomonas sp.
[3] = target: T2, Pancreatic Lipase (Porcine) (Sus scrofa, UniProt P00591); assay: In vitro FRET-based pancreatic lipase assay with reporter compound 17; type: biochemical; conditions: preliminary studies, substrate 17
T2 sequence (P00591 1-450): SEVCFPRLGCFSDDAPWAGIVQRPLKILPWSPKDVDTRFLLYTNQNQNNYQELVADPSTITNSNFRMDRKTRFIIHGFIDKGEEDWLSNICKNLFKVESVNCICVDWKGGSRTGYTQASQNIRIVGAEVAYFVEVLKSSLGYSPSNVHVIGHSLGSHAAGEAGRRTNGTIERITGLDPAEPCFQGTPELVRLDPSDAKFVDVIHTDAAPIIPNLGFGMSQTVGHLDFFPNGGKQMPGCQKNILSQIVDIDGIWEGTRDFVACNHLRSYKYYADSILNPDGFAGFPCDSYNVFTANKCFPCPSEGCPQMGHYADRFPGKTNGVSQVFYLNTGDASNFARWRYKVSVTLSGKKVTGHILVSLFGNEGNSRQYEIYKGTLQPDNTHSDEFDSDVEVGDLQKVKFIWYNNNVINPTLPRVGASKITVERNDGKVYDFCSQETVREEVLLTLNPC

hDAGLα [4] = target: T1, hDAGLα; conditions: cited from earlier work
FAAH = conditions: cited from earlier work
cannabinoid receptors = conditions: cited from earlier work
hDAGLα [5] = target: T1, hDAGLα; assay: In vitro FRET-based DAGL assay with reporter compound 17; type: biochemical
[6] = target: CB1 (rat brain preparation) (Rattus norvegicus, UniProt P20272); assay: Cannabinoid receptor competition binding, CB1
CB1 (rat brain preparation), sequence (P20272 whole entry): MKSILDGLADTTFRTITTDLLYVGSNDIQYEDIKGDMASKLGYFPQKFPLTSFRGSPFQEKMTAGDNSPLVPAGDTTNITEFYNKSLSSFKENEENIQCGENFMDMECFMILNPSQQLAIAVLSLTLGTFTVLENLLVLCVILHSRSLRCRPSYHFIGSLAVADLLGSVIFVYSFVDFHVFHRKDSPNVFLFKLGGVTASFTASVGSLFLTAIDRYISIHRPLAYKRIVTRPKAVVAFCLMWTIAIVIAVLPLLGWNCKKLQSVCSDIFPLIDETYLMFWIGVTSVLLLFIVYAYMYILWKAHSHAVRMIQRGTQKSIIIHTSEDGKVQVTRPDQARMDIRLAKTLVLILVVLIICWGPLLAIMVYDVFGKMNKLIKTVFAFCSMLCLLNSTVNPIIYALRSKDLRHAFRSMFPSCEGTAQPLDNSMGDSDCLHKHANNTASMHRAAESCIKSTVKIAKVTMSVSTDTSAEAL

mDAGLβ = target: T3, mDAGLβ (Mus musculus, UniProt Q91WC9); assay: Radio-TLC assay of mDAGLβ inhibition with [14C]SAG substrate; type: biochemical, murine
T3 sequence (Q91WC9 1-669): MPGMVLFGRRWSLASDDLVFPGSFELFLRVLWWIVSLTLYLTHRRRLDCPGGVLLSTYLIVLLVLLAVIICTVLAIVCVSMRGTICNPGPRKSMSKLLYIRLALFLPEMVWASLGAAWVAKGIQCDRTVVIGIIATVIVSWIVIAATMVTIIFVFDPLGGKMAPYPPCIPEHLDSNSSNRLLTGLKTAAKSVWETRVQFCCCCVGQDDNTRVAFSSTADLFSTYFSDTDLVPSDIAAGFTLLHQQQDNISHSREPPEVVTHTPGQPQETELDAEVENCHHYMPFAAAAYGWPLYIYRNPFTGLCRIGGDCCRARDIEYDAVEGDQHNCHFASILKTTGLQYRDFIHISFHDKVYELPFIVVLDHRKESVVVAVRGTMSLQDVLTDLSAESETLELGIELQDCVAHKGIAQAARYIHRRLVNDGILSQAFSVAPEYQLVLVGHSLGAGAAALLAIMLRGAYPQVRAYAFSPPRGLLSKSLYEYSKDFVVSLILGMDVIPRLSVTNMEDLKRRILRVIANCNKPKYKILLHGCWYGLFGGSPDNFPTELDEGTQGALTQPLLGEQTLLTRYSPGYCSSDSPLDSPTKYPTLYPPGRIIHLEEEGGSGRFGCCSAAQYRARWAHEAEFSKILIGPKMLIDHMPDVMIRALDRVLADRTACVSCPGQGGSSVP

Row | SMILES | inhibition of hDAGLα activity at 10 μM (in words) (hDAGLα [1]) | inhibition of hDAGLα in radio-TLC assays (in words) (hDAGLα [1]) | reported inhibition of DAGL activity (in words) (hDAGLα [4]) | reported inhibition of FAAH activity (in words) (FAAH) | binding to the cannabinoid receptors, previous reports (in words) (cannabinoid receptors) | binding to the cannabinoid receptors (in words), CB1 [6] | further results
1 | CCCCCCCCCCC[C@@H](C[C@@H]1OC(=O)[C@H]1CCCCCC)OC(=O)[C@H](CC(C)C)NC=O [3 (THL), tetrahydrolipstatin] | complete inhibition |  |  |  |  |  | inhibition of bacterial lipoprotein lipase (in words) [2]: potent inhibition; IC50 ([2]; read-out: apparent IC50 with lipoprotein lipase in FRET assay): ~100 nM; inhibition of porcine triacylglycerol lipase (in words) [3]: potent inhibition
2 | O=C(Oc1ccc([N+](=O)[O-])cc1)N1CCC(C(O)(c2ccc3c(c2)OCO3)c2ccc3c(c2)OCO3)CC1 [JZL184] |  | poor inhibitors | poor inhibitors | poor inhibitors | did not bind |  | 
3 | O=S(=O)(F)Cc1ccccc1 [PMSF, phenylmethylsulfonylfluoride] |  | poor inhibitors | poor inhibitors | poor inhibitors |  |  | effect on / reaction with DAGL (in words) (hDAGLα [4]): not affected
4 | O=C(NCCCCCCNC(=O)ON=C1CCCCC1)ON=C1CCCCC1 [RHC80267 (1), RHC80267] |  | poor inhibitors | poor inhibitors | poor inhibitors |  | did not bind | hDAGLα inhibition at 10 μM detergent free (%) (hDAGLα [5]): 40 ^* %
5 | O=C(N[C@H]1COC1=O)OCc1ccccc1 [SD41] | did not inhibit |  |  |  |  | did not bind | inhibition of mDAGLβ at 10 μM screening concentration (in words) (mDAGLβ): did not inhibit
6 | NC(=O)c1cccc(-c2cccc(OC(=O)NC3CCCCC3)c2)c1 [URB597] |  |  |  |  | did not bind |  | 
